The nature of this data set: Hygroscopicity of the crystal form. The note with it: unless maintained at about 0% relative humidity the form comprises greater than 0.5 molecules of water per molecule of lopinavir. In kind it is physicochemical. The source says:
The Type I hydrated crystal form of lopinavir comprising about 0.5 molecules of water per molecule of lopinavir is hygroscopic. Therefore, unless maintained under conditions of about 0% relative humidity, the Type I hydrated crystal form of lopinavir comprises greater than 0.5 molecules of water per molecule of lopinavir. If a Type I hydrated crystal form of lopinavir is dehydrated to below about 0.5 molecules of water per molecule of lopinavir, amorphous lopinavir is obtained.
The Type I crystal form of lopinavir comprising about 0.5 molecules of water per molecule of lopinavir has the powder X-ray diffraction pattern which appears in FIG. 1. The Type I crystal form of lopinavir comprising about 0.5 molecules of water per molecule of lopinavir has the solid state ^13C nuclear magnetic resonance spectrum, FT near infrared spectrum and FT mid infrared spectrum which appear in FIGS. 2, 3 and 4, respectively. The sample from which the infrared and nuclear magnetic resonance spectra were obtained may contain somewhat more than 0.5 molecules of water per molecule of lopinavir due to the hygroscopicity of the crystal form when the level of hydration is about 0.5 molecules of water per molecule of lopinavir.

In the case of `Cc1cccc(C)c1OCC(=O)N[C@@H](Cc1ccccc1)[C@@H](O)C[C@H](Cc1ccccc1)NC(=O)[C@H](C(C)C)N1CCCNC1=O`, the hygroscopicity result is recorded as “hygroscopic”.

Values taken from patent US8058433B2, “Crystalline pharmaceutical” (Abbott Laboratories, priority 2000, dated 2011).
